The values that follow come from patent US7029857B1, “Processes for obtaining compounds employing SNORF72 receptors” (H. Lundbeck A/S, priority 1999, dated 2006).

Test [1] addresses T1, SNORF62 (Homo sapiens, UniProt Q9HB89).
T1 sequence (Q9HB89 1-426): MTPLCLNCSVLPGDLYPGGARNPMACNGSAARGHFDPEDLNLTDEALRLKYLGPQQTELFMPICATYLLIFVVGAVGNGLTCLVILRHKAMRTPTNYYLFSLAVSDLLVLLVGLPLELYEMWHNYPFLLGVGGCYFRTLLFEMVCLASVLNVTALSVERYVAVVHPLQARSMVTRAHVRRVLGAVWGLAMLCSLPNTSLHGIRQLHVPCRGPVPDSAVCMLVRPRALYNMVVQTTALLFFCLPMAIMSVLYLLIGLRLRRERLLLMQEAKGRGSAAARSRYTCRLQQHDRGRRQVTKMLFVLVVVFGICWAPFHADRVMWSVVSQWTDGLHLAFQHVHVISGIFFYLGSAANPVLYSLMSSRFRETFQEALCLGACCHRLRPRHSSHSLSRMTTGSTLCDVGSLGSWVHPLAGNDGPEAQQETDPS
Briefly: Inositol phosphate (IP) release in SNORF62-transfected COS-7 cells. Type of test: cell-based. The arrangement: The SNORF62 cDNA codes for a protein of 426 amino acids; expressed in transfected cells; host or cells: COS-7 (transient, DEAE-dextran).
Protocol: Human SNORF62 receptor-mediated activation and human SNORF72 receptor-mediated activation of the inositol phosphate (IP) second messenger pathways were assessed by radiometric measurement of IP products.
For example, in a 96 well microplate format assay, COS-7 cells expressing the receptor of interest were plated at a density of 70,000 cells per well and allowed to incubate for 24 hours. The cells were then labeled with 0.5 μCi [^3H]myo-inositol overnight at 37° C., 5% CO2. Immediately before the assay, the medium was removed and replaced with 180 μL of Phosphate-Buffered Saline (PBS) containing 10 mM LiCl. The plates were then incubated for 20 min at 37° C., 5% CO2. Following the incubation, the cells were challenged with agonist (20 μl/well; 10× concentration) for 30 min at 37° C. The challenge was terminated by the addition of 100 μL of 5% v/v trichloroacetic acid, followed by incubation at 4° C. for greater than 30 minutes. Total IPs were isolated from the lysate by ion exchange chromatography. Briefly, the lysed contents of the wells were transferred to a Multiscreen HV filter plate (Millipore) containing Dowex AG1-X8 (200–400 mesh, formate form). The filter plates were prepared adding 100 μL of Dowex AG1-X8 suspension (50% v/v, water: resin) to each well. The filter plates were placed on a vacuum manifold to wash or elute the resin bed. Each well was first washed 2 times with 200 μl of 5 mM myo-inositol. Total [^3H]inositol phosphates were eluted with 75 μl of 1.2M ammonium formate/0.1M formic acid solution into 96-well plates. 200 μL of scintillation cocktail was added to each well, and the radioactivity was determined by liquid scintillation counting.

For test [2], the system named is isolated rat inner adrenocortical cells. The note with it: absence of medullary cells; cited from earlier work.
Another test concerns the target T2, rat SNORF72 (Rattus norvegicus, UniProt Q9ESQ4).
T2 construct: corresponding to a predicted protein of 395 amino acids; expressed in transfected cells; host or cells: COS-7 (transient)
Briefly: Intracellular Ca2+ release (FLIPR) in rat SNORF72-transfected COS-7 cells. Type of test: cell-based. The note with it: FIG. 22 at 100 nM. As for the experimental part: A typical protocol for the DEAE-dextran method as applied to COS-7 and HEK293 cells is described as follows. Cells to be used for transfection are split 24 hours prior to the transfection to provide flasks which are 70–80% confluent at the time of transfection. Briefly, 8 μg of receptor DNA plus 8 μg of any additional DNA needed (e.g. Gα protein expression vector, reporter construct, antibiotic resistance marker, mock vector, etc.) are added to 9 ml of complete DMEM plus DEAE-dextran mixture (10 mg/ml in PBS). Cells plated into a T225 flask (sub-confluent) are washed once with PBS and the DNA mixture is added to each flask. The cells are allowed to incubate for 30 minutes at 37° C., 5% CO2. Following the incubation, 36 ml of complete DMEM with 80 μM chloroquine is added to each flask and allowed to incubate an additional 3 hours. […]
In another method, the measurement of intracellular Ca^2+ can also be performed on a 96-well (or higher) format and with alternative Ca^2+-sensitive indicators, preferred examples of these are: aequorin, Fluo-3, Fluo-4, Fluo-5, Calcium Green-1, Oregon Green, and 488 BAPTA. After activation of the receptors with agonist ligands the emission elicited by the change of intracellular Ca^2+ concentration can be measured by a luminometer, or a fluorescence imager; a preferred example of this is the fluorescence imager plate reader (FLIPR™, Molecular Devices). […]

Another test has as its system rat uterus membranes. The note with it: binding site in rat uterus; cited from earlier work.
For test [3] the following is noted: cited from earlier work.
For another test, the system named is rat adrenal gland slices. The note with it: cited from earlier work.
The target in test [4] is T1, SNORF62. The test can be described thus: Intracellular Ca2+ release (FLIPR) in SNORF62-transfected COS-7 cells. The note with it: functional assay, data not shown. The arrangement: The SNORF62 cDNA codes for a protein of 426 amino acids; expressed in transfected cells; host or cells: COS-7 (transient, DEAE-dextran). Type of test: cell-based. The procedure:
(§1) A typical protocol for the DEAE-dextran method as applied to COS-7 and HEK293 cells is described as follows. Cells to be used for transfection are split 24 hours prior to the transfection to provide flasks which are 70–80% confluent at the time of transfection. Briefly, 8 μg of receptor DNA plus 8 μg of any additional DNA needed (e.g. Gα protein expression vector, reporter construct, antibiotic resistance marker, mock vector, etc.) are added to 9 ml of complete DMEM plus DEAE-dextran mixture (10 mg/ml in PBS). Cells plated into a T225 flask (sub-confluent) are washed once with PBS and the DNA mixture is added to each flask. The cells are allowed to incubate for 30 minutes at 37° C., 5% CO2. Following the incubation, 36 ml of complete DMEM with 80 μM chloroquine is added to each flask and allowed to incubate an additional 3 hours. The medium is then aspirated and 24 ml of complete medium containing 10% DMSO for exactly 2 minutes and then aspirated. The cells are then washed 2 times with PBS and 30 ml of complete DMEM added to each flask. The cells are then allowed to incubate over night. The next day the cells are harvested by trypsinization and reseeded into 96 well plates.
(§2) Cells expressing the receptor of interest are plated into clear, flat-bottom, black-walled 96-well plates (Costar) at a density of 80,000–150,000 cells per well and allowed to incubate for 48 hr at 5% CO2, 37° C. The growth medium is aspirated and 100 μL of loading medium containing Fluo-3 dye is added to each well. The loading medium contains: 20 mM HEPES (Sigma), 0.1% BSA (Sigma), dye/pluronic acid mixture (e.g. 1 mM Fluo-3/AM (Molecular Probes) and 10% pluronic acid (Molecular Probes) mixed immediately before use), and 2.5 mM probenecid (Sigma)(prepared fresh). The cells are allowed to incubate for about 1 hour at 5% CO2, 37° C.
(§3) The compounds of interest are diluted in wash buffer (Hank's BSS (without phenol red), 20 mM HEPES, 2.5 mM probenecid) to a 4× final concentration and aliquoted into a clear v-bottom plate (Nunc). Following the dye incubation, the cells are washed 4 times to remove excess dye using a Denley plate washer. 100 μL final volume of wash buffer is then added to each cell well. Compounds are added to the cell plates and responses are measured using the FLIPR™ instrument. The data are then collected and analyzed using the FLIPR™ software and Graphpad Prism.
(§4) COS-7 cells were transiently transfected with SNORF62, SNORF72 or vector DNA (mock) as described in Materials and Methods.

The target of a further test is T3, SNORF72 (Homo sapiens, UniProt Q9GZQ4, A395T).
T3 construct: expressed in transfected cells; host or cells: COS-7 (transient, DEAE-dextran)
T3 sequence (Q9GZQ4 whole entry A395T): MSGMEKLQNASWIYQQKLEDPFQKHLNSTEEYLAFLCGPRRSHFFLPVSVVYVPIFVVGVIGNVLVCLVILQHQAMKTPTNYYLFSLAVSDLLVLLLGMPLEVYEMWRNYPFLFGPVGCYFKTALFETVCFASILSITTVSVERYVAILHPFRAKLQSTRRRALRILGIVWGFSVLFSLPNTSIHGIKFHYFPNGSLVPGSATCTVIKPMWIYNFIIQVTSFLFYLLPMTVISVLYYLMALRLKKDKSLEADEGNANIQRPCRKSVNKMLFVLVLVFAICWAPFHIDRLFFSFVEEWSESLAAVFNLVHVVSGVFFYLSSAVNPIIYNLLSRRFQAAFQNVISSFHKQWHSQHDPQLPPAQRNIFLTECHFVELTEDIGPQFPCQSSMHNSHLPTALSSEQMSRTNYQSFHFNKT
Briefly: Intracellular Ca2+ release (FLIPR) in SNORF72-transfected COS-7 cells. Type of test: cell-based. The note with it: SNORF72-transfected COS-7 cells, peptides at 300 nM (FIG. 8). The procedure: as §1, §2, §3, §4

Test [5] concerns the target T4, human SNORF62 receptor (human, UniProt Q9HB89 1-426).
T4 construct: also called hSNORF62; NMU receptor
T4 sequence: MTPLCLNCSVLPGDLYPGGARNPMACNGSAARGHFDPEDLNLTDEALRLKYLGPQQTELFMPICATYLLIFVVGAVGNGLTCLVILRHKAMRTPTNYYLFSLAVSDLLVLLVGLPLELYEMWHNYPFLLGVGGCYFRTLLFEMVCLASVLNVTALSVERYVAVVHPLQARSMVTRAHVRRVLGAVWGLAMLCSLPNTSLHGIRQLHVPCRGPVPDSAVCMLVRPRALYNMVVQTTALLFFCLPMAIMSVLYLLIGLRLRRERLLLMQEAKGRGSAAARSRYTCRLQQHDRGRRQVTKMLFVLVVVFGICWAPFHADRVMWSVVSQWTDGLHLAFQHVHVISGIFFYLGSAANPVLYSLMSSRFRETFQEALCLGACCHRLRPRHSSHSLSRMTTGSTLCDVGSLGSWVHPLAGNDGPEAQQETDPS
Briefly: saturation radioligand binding, membranes of SNORF62-transfected COS-7 cells, n=2. The procedure:
(§5) Radioligand binding assays were performed by diluting membranes prepared from cells expressing the receptor in 50 mM Tris buffer (pH=7.4 at 0° C.) containing 0.1% bovine serum albumin (Sigma), aprotinin (0.005 mg/ml, Boehringer Mannheim) and bestatin (0.1 mM, Sigma) as protease inhibitors. The final protein concentration in the assay was 12–40 µg/ml. […] The bound ligand was separated from free by filtration through GF/B filters presoaked in 0.5% polyethyleneimine (PEI), using a Tomtec (Wallac) vacuum filtration device. After addition of Ready Safe (Beckman) scintillation fluid, bound radioactivity was quantitated using a Trilux (Wallac) scintillation counter (approximately 40% counting efficiency of bound counts). Data was fit to non-linear curves using GraphPad Prism.

Test [6] has as its target T5, human SNORF72 receptor (human, UniProt Q9GZQ4 1-415).
T5 construct: Full-length receptor (longest open reading frame), transiently expressed in COS-7 cells (whole cells or membranes prepared from them); also called hSNORF72; NMU receptor
The test can be described thus: saturation radioligand binding, membranes of SNORF72-transfected COS-7 cells, n=2. The procedure: as §5

Test [7] addresses T5, human SNORF72 receptor. Briefly: displacement of [125I]rat NMU-23, membranes of SNORF72-transfected COS-7 cells. The procedure:
as §5

Test [8] addresses T5, human SNORF72 receptor. The test can be described thus: displacement of [125I]rat NMU-23 (0.05-0.1 nM), membranes of SNORF72-transfected COS-7 cells, n=2. As for the experimental part: as §5
Test [9] addresses T4, human SNORF62 receptor. The test can be described thus: cell-based or functional assay.
Test [10] addresses T4, human SNORF62 receptor. The test can be described thus: cell-based or functional assay. The source holds these as a separate data set.
For test [11], the target named is T5, human SNORF72 receptor. The test can be described thus: cell-based or functional assay.
In test [12] the target is T4, human SNORF62 receptor. Briefly: cell-based or functional assay. This is another data set of the same source.
For test [13], the target named is T5, human SNORF72 receptor. Briefly: cell-based or functional assay. This is another data set of the same source.
For test [14], the target named is T4, human SNORF62 receptor. The test can be described thus: displacement of [125I]rat NMU-23, membranes of SNORF62-transfected COS-7 cells. The procedure: as §5
For test [15], the target named is T4, human SNORF62 receptor. Briefly: displacement of [125I]rat NMU-23 (0.05-0.1 nM), membranes of SNORF62-transfected COS-7 cells, n=2. As for the experimental part: as §5
Background: Displacement assays read how much labelled ligand stays bound in the presence of the test substance.

Where [16] appears, read: rats, single subcutaneous injection 6 μg/100 g body weight.

“And” between values parts separate entries of the source, which are not always exact repeats. Equal values may be shown once. No end group written: not given here.

T5 sequence (Q9GZQ4 other isoform, or with tags, fused parts or gaps): as the sequence (Q9GZQ4 whole entry A395T) above
T2 sequence (Q9ESQ4 whole entry): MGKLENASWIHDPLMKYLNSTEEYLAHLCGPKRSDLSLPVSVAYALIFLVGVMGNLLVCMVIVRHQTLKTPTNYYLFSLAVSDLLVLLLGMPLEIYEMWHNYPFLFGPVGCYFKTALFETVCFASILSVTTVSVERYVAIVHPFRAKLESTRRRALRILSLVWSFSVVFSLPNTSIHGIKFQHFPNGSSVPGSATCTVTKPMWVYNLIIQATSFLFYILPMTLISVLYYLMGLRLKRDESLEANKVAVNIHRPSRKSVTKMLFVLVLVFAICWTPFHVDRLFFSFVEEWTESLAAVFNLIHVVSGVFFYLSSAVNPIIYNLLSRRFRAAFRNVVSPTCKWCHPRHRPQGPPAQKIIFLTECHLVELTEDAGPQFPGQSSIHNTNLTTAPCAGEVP

Broadly, the IC50 is the point on the concentration scale where inhibition reaches its midpoint. As to `CC(C)C[C@H](NC(=O)[C@H](Cc1ccccc1)NC(=O)[C@@H](N)Cc1ccc(O)cc1)C(=O)N[C@@H](Cc1ccccc1)C(=O)N[C@@H](CCCNC(=N)N)C(=O)N1CCC[C@H]1C(=O)N[C@@H](CCCNC(=N)N)C(=O)N[C@@H](CC(N)=O)C(N)=O` [porcine NMU-8, Y F L F R P R N—NH2], the “agonist efficacy in IP release assay” value on SNORF62 [1] is listed as “full agonists”. Moreover, the basal corticosterone secretion entry in test [2] was “without effect”. The “increases in intracellular Ca2+” value on rat SNORF72 is reported as “robust increases”. The IC50 in the test with rat uterus membranes was 60 nM. In test [3] (rats treated for 6 days), the “stress-evoked rise in corticosterone” value was “absent”. In addition, in test [3] (setting [16]), the “time during which ACTH blood concentrations are elevated” value is 3 to 12 h and the “time plasma corticosterone levels remain elevated” value is 24 h. Moreover, in test [3] (repeated administration), the “adrenal weight and the number of cells in the zona reticularis” value is listed as “decreased”. For the same molecule, the “basal corticosterone and pregnenolone steroid secretion” value in the test with rat adrenal gland slices is “markedly increased”. In addition, the “maximum response / agonist efficacy at SNORF62” value at SNORF62 [4] was “full agonists”. Further, on SNORF72, the “stimulation of intracellular Ca2+ release” value is reported as “stimulated”.

B1: [125I]rat NMU-23 (peptide)
peptide: YKVNEYQGPVAPSGGFFLFRPRN-NH2
modifications: also: 125I-labelled, residue not given here
notes: Radioligand from NEN, specific activity 2200 Ci/mmole; also called radioiodinated rat NMU-23
In general, Kd refers to a measure of binding affinity in units of concentration. High values mean a looser complex, low ones a tighter complex. With B1, the Kd is 0.61 nM and 0.72 nM in the test with human SNORF62 receptor [5]; 0.81 nM and 0.96 nM with human SNORF72 receptor [6].

For orientation: Ki means the equilibrium dissociation constant of an inhibitor or competing ligand from its target. Low readings indicate a stronger hold on the target, high ones a looser hold on the target. The term pKi denotes the negative decadic logarithm of the Ki, by convention in mol/L. Turning to YKVNEYQGPVAPSGGFFLFRPRN-NH2 (also called rat neuromedin U-23) [rat NMU-23], the inhibition constant Ki with human SNORF72 receptor [7] and with human SNORF62 receptor [14] was 0.5 nM throughout. In addition, the pKi was determined as 9 with human SNORF72 receptor [8] and 9.4 with human SNORF62 receptor [15]. Moreover, the “AVG EC50 (nM), stimulation of Ca++ release in SNORF62-transfected COS-7 cells (FLIPR)” value with human SNORF62 receptor [9] was determined as 2.1 nM. In the test with human SNORF62 receptor [10], the “Avg EC50 (nM), stimulation of Ca2+ release in SNORF62-transfected COS-7 cells” value was found to be 2.1 nM. Moreover, in the test with human SNORF72 receptor [11], the “Avg EC50 (nM), stimulation of Ca2+ release in SNORF72-transfected COS-7 cells” value worked out at 5 nM. Besides, the “EC50, release of IP second messengers in SNORF62-transfected COS-7 cells” value with human SNORF62 receptor [12] is 0.23 nM. Also, the “EC50, Ca2+ release in SNORF72-transfected COS-7 cells” value with human SNORF72 receptor [13] is 1.7 nM and 5.1 nM.
